From patent US20230091966A1, “METHODS FOR THE TREATMENT OF CARDIOVASCULAR DISEASE WITH CYCLODEXTRINS” (Beren Therapeutics, P.B.C., priority 2020, published 2023)

Assays:
[1] = human subject, single-ascending IV doses 500-1,000 mg/kg every 4 weeks; plasma pre-dose vs post-dose; FIG. 3A
Description: A human subject was treated with 2-hydroxypropyl-beta-cyclodextrin with single-ascending doses administered intravenously every 4 weeks according to Table 1 below. For each dose, whole blood was collected pre-dose, post-dose (line flush), 1 hour post-dose, and 24 hours post-dose. Plasma was separated from the whole blood and subjected to a cholesterol crystal dissolution capacity (CCDC) assay using techniques similar to those described in the literature. The CCDC assay measures the ability of a sample to dissolve cholesterol crystals.

[2] = pre-dose blood plasma incubated ex vivo with the substance; FIG. 3B
Description: For each dose, whole blood was collected pre-dose, post-dose (line flush), 1 hour post-dose, and 24 hours post-dose. Plasma was separated from the whole blood and subjected to a cholesterol crystal dissolution capacity (CCDC) assay using techniques similar to those described in the literature. The CCDC assay measures the ability of a sample to dissolve cholesterol crystals. Blood plasma pre-dose was also incubated ex vivo with 2-hydroxypropyl-beta-cyclodextrin and the ability of the plasma to dissolve cholesterol crystals was measured.

[3] = test system: 24S-hydroxycholesterol and 27-hydroxycholesterol; conditions: human subject, IV 500-1,000 mg/kg every 4 weeks; FIGS. 4A-4C
Description: A human subject was treated with 2-hydroxypropyl-beta-cyclodextrin with single-ascending doses administered intravenously every 4 weeks according to Table 1 below.
In this Example, a human subject was treated with 2-hydroxypropyl-beta-cyclodextrin as in Example 2, and plasma levels of 24S-hydroxycholesterol and 27-hydroxycholesterol were measured.

[4] = test system: ABCA1; conditions: human subject, IV 500-1,000 mg/kg every 4 weeks; FIGS. 5A-5D
Description: (§1) A human subject was treated with 2-hydroxypropyl-beta-cyclodextrin with single-ascending doses administered intravenously every 4 weeks according to Table 1 below. In this Example, a human subject was treated with 2-hydroxypropyl-beta-cyclodextrin as in Example 2, and ABCA1 and ABCG1 mRNA levels were measured. […] ABCA1 and ABCG1 are major cellular transporters resulting in cholesterol efflux to […] or mature HDL particles. In cardiovascular disease, expression of ABC transporters correlates with plaque stability and morbidity.

[5] = test system: ABCG1; conditions: human subject, IV 500-1,000 mg/kg every 4 weeks; FIGS. 5A-5D
Description: as §1

Substance: 2-hydroxypropyl-beta-cyclodextrin
- capability of blood plasma to dissolve cholesterol crystals (CCDC) [1]: increased capability of blood plasma to dissolve cholesterol crystals
- capacity of plasma to dissolve cholesterol crystals (CCDC) [2]: increased capacity to dissolve cholesterol crystals
- plasma level of 24S-hydroxycholesterol [3]: increased plasma levels
- plasma level of 27-hydroxycholesterol [3]: increased plasma levels
- total cholesterol levels [3]: remained stable
- ABCA1 mRNA levels [4]: increased mRNA levels
- ABCG1 mRNA levels [5]: increased mRNA levels
